pIC50: −log10 of the molar value.
Tested on: 475296-252-R-J1-PDC spheroid viability
Assay: Anticancer human tumor 475296-252-R-J1-PDC patient-derived rectal carcinoma cell line growth inhibition [PI3K]
Conditions: spheroids with HUVEC and MSC; for pIC50: curve of first compound; for viability, T/C: stronger effect = lower value
In short: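 Multi-cell spheroids combine tumor cells with HUVEC and human MSCs, treated with targeted agents alone or with inavolisib, alpelisib, duvelisib or copanlisib. Concentrations fall in half-log steps from at or near clinical Cmax, or from 10 microM where Cmax is unknown; viability read-out.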

[1] = second compound 0.0316 µM, first compound 0.0316 µM
[2] = second compound 0.0316 µM, first compound 0.1 µM
[3] = second compound 0.1 µM, first compound 0.0316 µM
[4] = second compound 0.1 µM, first compound 0.1 µM
[5] = second compound 0.316 µM, first compound 0.0316 µM
[6] = second compound 0.316 µM, first compound 0.1 µM
[7] = second compound 1 µM, first compound 0.0316 µM
[8] = second compound 1 µM, first compound 0.1 µM
[9] = second compound 3.16 µM, first compound 0.0316 µM
[10] = second compound 3.16 µM, first compound 0.1 µM
[11] = second compound 10 µM, first compound 0.0316 µM
[12] = second compound 10 µM, first compound 0.1 µM
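Also: spheroids exposed to agents for seven days before readout.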

What does the source list for `C[C@@H](NC(=O)c1ncnc(N)c1Cl)c1ncc(C(=O)Nc2cc(C(F)(F)F)c(Cl)cn2)s1` + Cc1nc(NC(=O)N2CCCC2C(N)=O)sc1-c1ccnc(C(C)(C)C(F)(F)F)c1?
pIC50 (second compound 0.0316 µM): < 5.00; pIC50 (second compound 0.1 µM): < 5.00; pIC50 (second compound 0.316 µM): < 5.00; pIC50 (second compound 1 µM): < 5.00; pIC50 (second compound 3.16 µM): < 5.00; pIC50 (second compound 10 µM): 5.11; viability, T/C [1]: 97.3%; viability, T/C [2]: 82.2%; viability, T/C (second compound 0.0316 µM, first compound 0.316 µM): 98.4%; viability, T/C (second compound 0.0316 µM, first compound 1 µM): 97.1%; viability, T/C (second compound 0.0316 µM, first compound 3.16 µM): 104%; viability, T/C (second compound 0.0316 µM, first compound 10 µM): 84.1%; viability, T/C [3]: 88.8%; viability, T/C [4]: 85.3%; viability, T/C (second compound 0.1 µM, first compound 0.316 µM): 109%; viability, T/C (second compound 0.1 µM, first compound 1 µM): 91.7%; viability, T/C (second compound 0.1 µM, first compound 3.16 µM): 100%; viability, T/C (second compound 0.1 µM, first compound 10 µM): 95.4%; viability, T/C [5]: 87.7%; viability, T/C [6]: 90.5%; viability, T/C (second compound 0.316 µM, first compound 0.316 µM): 97%; viability, T/C (second compound 0.316 µM, first compound 1 µM): 98.9%; viability, T/C (second compound 0.316 µM, first compound 3.16 µM): 95.6%; viability, T/C (second compound 0.316 µM, first compound 10 µM): 79.9%; viability, T/C [7]: 82.6%; viability, T/C [8]: 93.7%; viability, T/C (second compound 1 µM, first compound 0.316 µM): 101%; viability, T/C (second compound 1 µM, first compound 1 µM): 101%; viability, T/C (second compound 1 µM, first compound 3.16 µM): 84.9%; viability, T/C (second compound 1 µM, first compound 10 µM): 63%; viability, T/C [9]: 86.2%; viability, T/C [10]: 79.4%; viability, T/C (second compound 3.16 µM, first compound 0.316 µM): 93.4%; viability, T/C (second compound 3.16 µM, first compound 1 µM): 75.9%; viability, T/C (second compound 3.16 µM, first compound 3.16 µM): 79.6%; viability, T/C (second compound 3.16 µM, first compound 10 µM): 70.5%; viability, T/C [11]: 86.6%; viability, T/C [12]: 77%; viability, T/C (second compound 10 µM, first compound 0.316 µM): 79.5%; viability, T/C (second compound 10 µM, first compound 1 µM): 69.1%; viability, T/C (second compound 10 µM, first compound 3.16 µM): 66.8%; viability, T/C (second compound 10 µM, first compound 10 µM): 45%

`Cn1ncnc1[C@H]1c2n[nH]c(=O)c3cc(F)cc(c23)N[C@@H]1c1ccc(F)cc1` + Cc1nc(NC(=O)N2CCCC2C(N)=O)sc1-c1ccnc(C(C)(C)C(F)(F)F)c1 was tested. Which pIC50 (second compound 0.0316 µM) did it give?
The pIC50 was less than 7.00.

What about the pIC50 (second compound 0.1 µM) of the same compound?
Its pIC50 is less than 7.00.

What about the pIC50 (second compound 0.316 µM) of the same compound?
Its pIC50 is less than 7.00.

What about the pIC50 (second compound 1 µM) of the same compound?
The pIC50 was less than 7.00.

And the pIC50 (second compound 3.16 µM)?
The pIC50 was less than 7.00.

What about the pIC50 (second compound 10 µM) of the same compound?
Its pIC50 is less than 7.00.

What about the viability, T/C (second compound 0.0316 µM, first compound 0.000316 µM) of the same compound?
The viability, T/C was 104%.

And the viability, T/C (second compound 0.0316 µM, first compound 0.001 µM)?
The viability, T/C was 88.4%.

What about the viability, T/C (second compound 0.0316 µM, first compound 0.00316 µM) of the same compound?
The viability, T/C was 106%.

And the viability, T/C (second compound 0.0316 µM, first compound 0.01 µM)?
The viability, T/C was 87.1%.

What about the viability, T/C [1] of the same compound?
Its viability, T/C is 98.8%.

What about the viability, T/C [2] of the same compound?
The viability, T/C was 101%.

What about the viability, T/C (second compound 0.1 µM, first compound 0.000316 µM) of the same compound?
Its viability, T/C is 92%.

What about the viability, T/C (second compound 0.1 µM, first compound 0.001 µM) of the same compound?
The viability, T/C was 87.1%.

And the viability, T/C (second compound 0.1 µM, first compound 0.00316 µM)?
Its viability, T/C is 94.7%.

What about the viability, T/C (second compound 0.1 µM, first compound 0.01 µM) of the same compound?
Its viability, T/C is 101%.

And the viability, T/C [3]?
The viability, T/C was 110%.

And the viability, T/C [4]?
Its viability, T/C is 103%.

What about the viability, T/C (second compound 0.316 µM, first compound 0.000316 µM) of the same compound?
Its viability, T/C is 89.7%.

And the viability, T/C (second compound 0.316 µM, first compound 0.001 µM)?
The viability, T/C was 92.4%.

What about the viability, T/C (second compound 0.316 µM, first compound 0.00316 µM) of the same compound?
Its viability, T/C is 88.9%.

What about the viability, T/C (second compound 0.316 µM, first compound 0.01 µM) of the same compound?
Its viability, T/C is 99.6%.

And the viability, T/C [5]?
The viability, T/C was 105%.

And the viability, T/C [6]?
The viability, T/C was 90.8%.

And the viability, T/C (second compound 1 µM, first compound 0.000316 µM)?
Its viability, T/C is 91.3%.

What about the viability, T/C (second compound 1 µM, first compound 0.001 µM) of the same compound?
The viability, T/C was 99.5%.

What about the viability, T/C (second compound 1 µM, first compound 0.00316 µM) of the same compound?
Its viability, T/C is 101%.

And the viability, T/C (second compound 1 µM, first compound 0.01 µM)?
The viability, T/C was 91.7%.

And the viability, T/C [7]?
The viability, T/C was 92.6%.

What about the viability, T/C [8] of the same compound?
Its viability, T/C is 104%.

And the viability, T/C (second compound 3.16 µM, first compound 0.000316 µM)?
The viability, T/C was 85.8%.

And the viability, T/C (second compound 3.16 µM, first compound 0.001 µM)?
The viability, T/C was 90%.

And the viability, T/C (second compound 3.16 µM, first compound 0.00316 µM)?
Its viability, T/C is 91.5%.

What about the viability, T/C (second compound 3.16 µM, first compound 0.01 µM) of the same compound?
Its viability, T/C is 87.7%.

What about the viability, T/C [9] of the same compound?
The viability, T/C was 87.7%.

And the viability, T/C [10]?
Its viability, T/C is 88.6%.

And the viability, T/C (second compound 10 µM, first compound 0.000316 µM)?
Its viability, T/C is 91.7%.

What about the viability, T/C (second compound 10 µM, first compound 0.001 µM) of the same compound?
Its viability, T/C is 92.1%.

And the viability, T/C (second compound 10 µM, first compound 0.00316 µM)?
The viability, T/C was 84.7%.

What about the viability, T/C (second compound 10 µM, first compound 0.01 µM) of the same compound?
Its viability, T/C is 83.3%.

What about the viability, T/C [11] of the same compound?
The viability, T/C was 91.3%.

What about the viability, T/C [12] of the same compound?
Its viability, T/C is 84.6%.

Source: PubChem BioAssay AID1963980 (Molecular Pharmacology Branch, DTP, NCI, 2024)
